Assay results taken from patent publication US20160051570A1, “TREATMENT OF RHEUMATOID ARTHRITIS” (Ganderland and Associates, Inc., priority 2014, published 2016).

tested on: RA; assay: Previous drug treatment of the same RA patients (patient history); format: in vivo, human; details: drug taken before the composition

Compound	effect in remission of the disease
ENBREL®	without any real effect
CN(Cc1cnc2nc(N)nc(N)c2n1)c1ccc(C(=O)N[C@@H](CCC(=O)O)C(=O)O)cc1 [methotrexate]	without any real effect
C[C@]12C=CC(=O)C=C1CC[C@@H]1[C@@H]2C(=O)C[C@@]2(C)[C@H]1CC[C@]2(O)C(=O)CO [prednisone]	without any real effect
Cc1oncc1C(=O)Nc1ccc(C(F)(F)F)cc1 [arava, leflunomide]	without any real effect
